Reference: US20100048564A1, “FUSED BICYCLIC HETEROARYL DERIVATIVE” (DAIICHI SANKYO COMPANY, LIMITED, priority 2007, published 2010)
Read-outs that look alike come from different tables or passages of the source.

Legend:
Rat white adipocytes = test: Adipocyte differentiation promotion test (Test Example 4); format: cell-based; details: for EC50: 120 h
Method: Rat white adipocytes included in a white adipocyte culture kit purchased from Primary Cell Co., Ltd. were subjected to this test. A medium included in the white adipocyte culture kit purchased from Primary Cell Co., Ltd. was used as a growth medium or a differentiation-inducing medium.
The whole of the transportation medium was extracted immediately after the arrival of the purchased cells. The growth medium was added in an amount of 5 ml(/25 cm^2-flask), and the cells were cultured for one day. Thereafter, a cell suspension (83,000 cells/mL) was prepared using the growth medium. The cell suspension was dispensed to a 96-well type-I collagen-coated microplate (SUMITOMO BAKELITE Co., Ltd.) at 5,000 cells/well (60 μL/well). A well to which only the growth medium not containing cells was dispensed (blank well) was provided as a blank group in each plate.
Further, 1) for the test compound-added group, a 100 μM solution of the test compound in DMSO was diluted 20-fold with the differentiation-inducing medium; this was added at 3 μL/well (final test compound concentration: 100 nM, final DMSO concentration: 0.1% (v/v)) to the wells into which the cells were seeded. […] 3) For the negative control group, DMSO diluted 20-fold with the differentiation-inducing medium was added at 3 μL/well (final DMSO concentration: 0.1% (v/v)) to the wells into which the cells were seeded.
After culturing for five days, the whole of the differentiation-inducing medium was removed from each well, and 60 μL of a 10% (v/v) formaldehyde solution (fixative solution) was added to each well. The cells were incubated at room temperature for 20 minutes. The whole of the fixative solution was removed and 60 μL of a 0.2% (v/v) Triton X-100 solution (Sigma) was dispensed to each well. The cells were incubated at room temperature for five minutes. The whole of the Triton X-100 solution was removed. A fat stain was prepared by dissolving Oil Red 0 (Sigma) in a 60% (v/v) isopropanol solution at 0.3% (w/v), and 60 μL of the fat stain was dispensed to each well. The cells were incubated at room temperature for 10 minutes. The whole of the fat stain was removed, and then 60 μL of a 60% (v/v) isopropanol solution was dispensed and removed. Thus, each well was washed twice. Thereafter, DMSO was added to each well at 100 μL per well, followed by stirring at room temperature for five minutes. […] The degree of adipocyte differentiation (%) of the test compound-added group was calculated assuming that the measured ABS550 of the positive control group was 100% and the measured ABS550 of the negative control group was 0.

[1] = biological target: T1, GAL4-PPARγ chimeric receptor (Homo sapiens, UniProt P37231); test: Measurement of PPARγ activation effect/modulator activity, GAL4-PPARγ reporter assay in COS-7 cells (Test Example 5); format: cell-based; details: for Emax: COS-7
T1 construct: containing amino acids 175 to 475 of human PPARγ and a stop codon at the carboxy end; expressed in transfected cells; host or cells: COS-7 (monkey kidney) cells, transfected with pM-PPARγ and pFR-Luc
Method: The details will be shown below.
The plasmid is a gene that can express a GAL4-PPARγ chimeric receptor in mammalian cells.
The previously acquired plasmid pM-PPARγ and the plasmid pFR-Luc purchased from Stratagene Cloning Systems, Inc. were dissolved in deionised water at a concentration of 1 mg/mL each.
On the following day, the cells were harvested by trypsin treatment, suspended in phenol red-free Dulbecco's modified Eagle's medium containing […] 10% fetal bovine serum, seeded into a white 96-well plate (manufactured by Costar) using the medium in a volume of 95 μL per well, and cultured overnight.
The test compound was dissolved in dimethyl sulfoxide at a concentration of 30 mM. […] Dimethyl sulfoxide was prepared for the control group. Rosiglitazone dissolved in dimethyl sulfoxide at a concentration of 30 mM was prepared for the positive control group. They were diluted 150-fold with the medium, and 5 μL of the dilution was added to the wells in which the cells were grown. The concentrations of the test compound treating the cells ranged from 10 μM to 0.006 nM. After the addition, the cells were cultured overnight.
On the following day, the medium was removed, and Luc Lite (manufactured by PerkinElmer Inc.) was prepared according to the attached document and added at 50 microliters per well. The plates with cells in the Luc Lite was stirred for about 30 minutes. The amount of luminescence in each well was measured as luciferase activity using Analyst (Molecular Devices) for 0.5 second. A dose-dependent curve was drawn.

[2] = Adipocyte, rat white adipocytes, test compound alone, 5 days, Oil Red O ABS550, read-out: EC50
[3] = Rattus norvegicus, degree of adipocyte differentiation, positive control (Compound A 3.3 nM) 100%, negative control 0, read-out: Emax (%)
[4] = maximum luciferase activity, positive control (Rosiglitazone) 100%, control 0%, read-out: Emax (%)
[5] = COS-7 cells with pM-PPARγ and pFR-Luc, concentration represented by Emax/2, read-out: EC50

T1 sequence (P37231 with tags, fused parts or gaps): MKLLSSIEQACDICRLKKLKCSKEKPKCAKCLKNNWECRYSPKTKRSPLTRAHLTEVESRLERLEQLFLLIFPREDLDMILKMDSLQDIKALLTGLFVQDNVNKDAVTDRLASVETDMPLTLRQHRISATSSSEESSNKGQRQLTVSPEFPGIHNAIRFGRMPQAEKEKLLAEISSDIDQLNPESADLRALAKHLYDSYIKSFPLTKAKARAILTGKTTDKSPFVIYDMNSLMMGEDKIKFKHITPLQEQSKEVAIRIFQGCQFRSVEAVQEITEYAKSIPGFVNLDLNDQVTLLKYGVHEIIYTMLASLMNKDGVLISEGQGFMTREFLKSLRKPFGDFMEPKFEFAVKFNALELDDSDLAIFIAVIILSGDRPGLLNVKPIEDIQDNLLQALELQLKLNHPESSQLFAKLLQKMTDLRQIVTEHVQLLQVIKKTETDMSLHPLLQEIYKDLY

SMILES	EC50 (Rat white adipocytes; [2]) [nM]	Emax [1, 4] [%]	EC50 [1, 5] [pM]	Emax (Rat white adipocytes; [3]) [%]	Emax (Rat white adipocytes; Rattus norvegicus, Adipocyte) [%]	EC50 (Rat white adipocytes; Rattus norvegicus, Adipocyte) [nM]	EC50 [1] [pM]	Emax [1] [%]
Cc1cc(Oc2ccc3nc(COc4cccc(C(=O)O)c4)n(C)c3c2)cc(C)c1N.Cl.Cl [Example 2, 3-{[6-(4-Amino-3,5-dimethylphenoxy)-1-methyl-1H-benzimidazol-2-yl]methoxy}benzoic acid dihydrochloride]	4.2	73.3	299000	73	–	–	–	–
Cl.Cn1c(COc2cccc(C(=O)O)c2)nc2ccc(Oc3ccc(Cl)c(F)c3)cc21 [Example 10, 3-{[6-(4-Chloro-3-fluorophenoxy)-1-methyl-1H-benzimidazol-2-yl]methoxy}benzoic acid hydrochloride]	6.6	46.5	67000	78	–	–	–	–
Cl.Cn1c(COc2cccc(C(=O)O)c2)nc2ccc(Oc3ccc(F)c(Cl)c3)cc21 [Example 12, 3-{[6-(3-Chloro-4-fluorophenoxy)-1-methyl-1H-benzimidazol-2-yl]methoxy}benzoic acid hydrochloride]	5.2	60.2	39700	82	–	–	–	–
Cl.Cn1c(COc2cccc(C(=O)O)c2)nc2ccc(Oc3ccccc3)cc21 [Example 14, 3-[(1-Methyl-6-phenoxy-1H-benzimidazol-2-yl)methoxy]benzoic acid hydrochloride]	–	–	–	–	56	20	845000	89.6

Continued, in another order:

EC50 (Rat white adipocytes; [2]) [nM]	Emax [1, 4] [%]	EC50 [1, 5] [pM]	SMILES	Emax (Rat white adipocytes; [3]) [%]	Emax (Rat white adipocytes; Rattus norvegicus, Adipocyte) [%]	EC50 (Rat white adipocytes; Rattus norvegicus, Adipocyte) [nM]	EC50 [1] [pM]	Emax [1] [%]
7.4	91	4.74e+06	Cl.Cn1c(COc2cccc(C(=O)O)c2)nc2ccc(Oc3cccc(F)c3)cc21 [Example 8, 3-{[6-(3-Fluorophenoxy)-1-methyl-1H-benzimidazol-2-yl]methoxy}benzoic acid hydrochloride]	75	–	–	–	–
64	60.9	550000	Cl.Cl.Cn1c(COc2cccc(C(=O)O)c2)nc2ccc(Oc3ccccc3)nc21 [Example 16, 3-[(3-Methyl-5-phenoxy-3H-imidazo[4,5-b]pyridin-2-yl)methoxy]benzoic acid dihydrochloride]	71	–	–	–	–
